Consider five molecules from article PMC3161154 (Journal of the American Chemical Society, 2011).

The target in one data set is mTOR (Homo sapiens, UniProt P42345). The experiment in a line: mTor kinase inhibition. In kind it is biochemical. The note with it: read-out: mTOR (nM), mTor kinase inhibition.
A further data set relates to LNCap. The experiment in a line: cytotoxicity, LNCap. It is filed as cell-based. The note with it: read-out: LNCap (nM), cytotoxicity.
The next data set deals with MDA-468. The experiment in a line: cytotoxicity, MDA-468. It is filed as cell-based. Conditions: read-out: MDA-468 (nM), cytotoxicity.
Data set [1] deals with phosphatidylinositol 3-kinase. Conditions: read-out: IC50 phosphatidylinositol 3-kinase; cited from earlier work.
The target of another data set is lymphocyte kinase. Conditions: read-out: IC50 lymphocyte kinase; cited from earlier work.

As for `COC=CC(=O)c1cc2cnc3c(=N)cc(NC(=O)CC(C)C)c([nH]1)c23` [Compound 6, neolymphostin D], the IC50 was 1.8 nM on mTOR, 230 nM with LNCap and 700 nM in the data set with MDA-468.

Consider `CC[C@H](C)C(=O)Nc1cc(=N)c2ncc3cc(C(=O)C=COC)[nH]c1c32` [Compound 5, neolymphostin C], for which the values for the IC50 at mTOR, in the data set with LNCap and with MDA-468 were 1.8 nM, 230 nM and 700 nM, respectively.

Turning to neolymphostin A [Compound 3], the IC50 was 0.8 nM on mTOR, 22 nM with LNCap and 58 nM with MDA-468.

As for `CO/C=C/C(=O)c1cc2cnc3c(=N)cc(NC(C)=O)c([nH]1)c23` [Compound 1, lymphostin], the IC50 is 1.7 nM on mTOR; 38 nM in the data set with LNCap; 1 nM in data set [1]; 14 nM in the data set on MDA-468; 50 nM on lymphocyte kinase.

Consider `CCC(=O)Nc1cc(=N)c2ncc3cc(C(=O)C=COC)[nH]c1c32` [Compound 4, neolymphostin B], for which the IC50 stood at 1.5 nM at mTOR, 48 nM with LNCap and 85 nM in the data set with MDA-468.
